The text below walks through data of DBAASP.

Molecules are shown by their SMILES. Values after ≈ are worked out from the molar mass of the structure shown. Values joined by “and” are separate entries in the source; they are usually repeats but may differ in a detail not shown here. Equal entries are not always repeated.

Some test systems named below: Pseudomonas aeruginosa; Escherichia coli; Candida albicans 08A802; Enterococcus faecalis; Escherichia coli K88.
What all share (assay): ≥ marks a high value that may be exact or a test limit, other limits are often not marked, values filed in µg/mL are converted to µM
In assay [1] the test system is Mycobacterium tuberculosis FYX.
In assay [2] the test system is Staphylococcus aureus ATCC 6538.
In assay [3] the test system is Mycobacterium tuberculosis WXY.
In assay [4] the test system is Mycobacterium tuberculosis CAS3.
In assay [5] the test system is Staphylococcus aureus ATCC 25923.
Assay [6] deals with Candida albicans ATCC 2002.
Assay [7] concerns Bacillus subtilis ATCC 6633.
The subject of assay [8] is Pseudomonas aeruginosa ATCC 27853.
For assay [9], the system named is Candida albicans 08022710.
In assay [10] the test system is Escherichia coli ATCC 25922.
For assay [11], the system named is Escherichia coli ATCC 35218.
In assay [12] the test system is Staphylococcus epidermidis.
Assay [13] concerns Candida albicans ATCC 10231.
Assay [14] relates to Mycobacterium tuberculosis H37Rv.
Assay [15] has as its system Staphylococcus aureus 08A875.
Assay [16] has as its system Acinetobacter baumannii ATCC 19606.
The subject of assay [17] is Acinetobacter baumannii 1.
For assay [18], the system named is Escherichia coli CVCC 1515.
Assay [19] concerns Pseudomonas aeruginosa CICC 10419.
Assay [20] relates to Listeria ivanovii ATCC 19119.
The test system of assay [21] is Salmonella enterica subsp. enterica serovar Typhimurium ATCC 14028.
Assay [22] concerns Streptococcus suis CVCC 606.
Assay [23] concerns Salmonella enterica subsp. enterica serovar Pullorum CVCC 1789.
Assay [24] has as its system Salmonella enterica subsp. enterica serovar Choleraesuis CVCC 503.
The subject of assay [25] is Candida albicans CGMCC 2.2411.
Assay [26] relates to Staphylococcus aureus ATCC 43300.
Assay [27] concerns Escherichia coli O157:H7 CICC 21530.
For assay [28], the system named is Salmonella enterica subsp. enterica serovar Pullorum CVCC 1802.
In assay [29] the test system is Pseudomonas aeruginosa CICC 21630.
Assay [30] concerns Salmonella enterica subsp. enterica serovar Enteritidis CVCC 3377.
Assay [31] concerns Escherichia coli CVCC 195.
Assay [32] relates to Enterococcus faecium CMCC 1.2136.
Assay [33] has as its system Pseudomonas aeruginosa PAO1.
In assay [34] the test system is Staphylococcus aureus ATCC 49525.
Assay [35] relates to Porphyromonas gingivalis W50.
For assay [36], the system named is Streptococcus agalactiae BNCC 185941.
Assay [37] deals with Lacticaseibacillus rhamnosus 1.0936.
Assay [38] deals with Lacticaseibacillus rhamnosus 1.0911.
Assay [39] relates to Salmonella enterica subsp. enterica serovar Pullorum C79-13.
For assay [40], the system named is Lacticaseibacillus rhamnosus 8014.
Assay [41] concerns Staphylococcus epidermidis ATCC 12228.
Assay [42] relates to Lacticaseibacillus rhamnosus 1.9021.
The subject of assay [43] is Staphylococcus aureus ATCC 29213.

`CC(C)C[C@H](NC(=O)[C@H](CC(C)C)NC(=O)[C@H](CCCCN)NC(=O)[C@H](CCCCN)NC(=O)[C@@H](NC(=O)[C@H](C)N)C(C)C)C(=O)N[C@@H](CCCN=C(N)N)C(=O)N[C@@H](Cc1c[nH]c2ccccc12)C(=O)N[C@@H](Cc1c[nH]c2ccccc12)C(=O)N[C@@H](CO)C(=O)N[C@@H](CCCN=C(N)N)C(=O)N[C@@H](Cc1c[nH]c2ccccc12)C(=O)N[C@@H](Cc1c[nH]c2ccccc12)C(=O)N[C@@H](CCCCN)C(=O)N[C@@H](CCCCN)C(=O)O` [AVKKLLRWWSRWWKK]: the MIC was over 96.5 µM with Pseudomonas aeruginosa; 9.05 µM (≈ 18.8 µg/mL) in [1]; over 96.5 µM in assay [2]; 4.53 µM (≈ 9.38 µg/mL) in assay [3]; > 96.5 µM and 72.4 µM with Escherichia coli; at least 72.4 µM against Candida albicans 08A802. Moreover, the minimum inhibitory concentration (MIC) in [4] was 9.05 µM (≈ 18.8 µg/mL); in [5], over 96.5 µM; in assay [6], at least 96.5 µM; in [7] it was at least 72.4 µM; in assay [8], over 96.5 µM; in [9] it was at least 96.5 µM. Moreover, the MIC was over 96.5 µM in assay [10]; at least 96.5 µM in [11]; at least 72.4 µM against Enterococcus faecalis; at least 96.5 µM in assay [12]; over 96.5 µM in assay [13]; 9.05 µM (≈ 18.8 µg/mL) in assay [14]. Besides, the MIC was at least 72.4 µM in assay [15], 72.4 µM (≈ 150 µg/mL) in assay [16] and at least 96.5 µM in assay [17].

Turning to `CC(C)[C@H](NC(=O)CNC(=O)[C@H](CC(N)=O)NC(=O)[C@H](CCCN=C(N)N)NC(=O)[C@H](Cc1ccc(O)cc1)NC(=O)[C@@H](NC(=O)[C@@H](NC(=O)[C@H](CC(N)=O)NC(=O)[C@H](Cc1c[nH]c2ccccc12)NC(=O)[C@H](Cc1ccccc1)NC(=O)CN)C(C)C)C(C)C)C(=O)N[C@@H](CCCN=C(N)N)C(=O)N[C@H](C(=O)N[C@@H](Cc1cnc[nH]1)C(=O)N[C@@H](CCCN=C(N)N)C(=O)N[C@@H](CCCN=C(N)N)C(=O)N[C@@H](CC(N)=O)C(=O)O)C(C)C` [GFWNVVYRNGVRVHRRN], the minimum inhibitory concentration (MIC) in assay [18] is at least 60.1 µM; in assay [19] it was at least 60.1 µM; in assay [20] it was at least 60.1 µM; in [21], 60.1 µM (≈ 128 µg/mL); in assay [22], at least 60.1 µM; in [23] it was at least 60.1 µM. Further, the MIC in assay [24] is at least 60.1 µM; in assay [25], at least 60.1 µM; in assay [26] it was over 60.1 µM; in assay [27], 30.1 µM (≈ 64 µg/mL); in assay [5] it was 0.939 µM (≈ 2 µg/mL); in assay [28], at least 60.1 µM. For the same compound, the MIC in assay [7] is 30.1 µM (≈ 64 µg/mL); in assay [29], at least 60.1 µM; in [30], 1.88 µM (≈ 4 µg/mL); in assay [31], 30.1 µM (≈ 64 µg/mL); in assay [32], 30.1 µM (≈ 64 µg/mL).

`CC[C@H](C)[C@H](NC(=O)[C@H](CCCCN)NC(=O)CN)C(=O)N[C@H](C(=O)N[C@@H](CCCCN)C(=O)N[C@@H](CC(C)C)C(=O)N[C@@H](CCCCN)C(=O)N[C@@H](C)C(=O)N[C@@H](CO)C(=O)N[C@@H](CC(C)C)C(=O)N[C@@H](CCCCN)C(=O)N[C@@H](CC(C)C)C(=O)N[C@@H](CC(C)C)C(N)=O)[C@@H](C)CC` [GKIIKLKASLKLL]: the MIC is 5.61 µM and 7.3 µM in assay [33]; at least 58.5 µM in assay [34]; at least 70.2 µM in [35].

`CC(C)C[C@H](NC(=O)CNC(=O)[C@H](CCCCN)NC(=O)[C@H](Cc1c[nH]c2ccccc12)NC(=O)[C@H](CCCCN)NC(=O)CNC(=O)[C@H](CC(C)C)NC(=O)[C@H](CC(C)C)NC(=O)[C@@H](N)CCCCN)C(=O)N[C@@H](CC(C)C)C(=O)N[C@@H](CCCCN)C(N)=O` [KLLGKWKGLLK]: the minimal inhibitory concentration (MIC) is 128 µM (≈ 164 µg/mL) in assay [21]; at least 128 µM in assay [36]; 16 µM (≈ 20.5 µg/mL) in assay [33]; at least 128 µM in assay [37]; at least 128 µM in [24]; over 128 µM in [26]. Moreover, the MIC in assay [27] was at least 128 µM; in assay [38] it was at least 128 µM; in [39] it was 8 µM (≈ 10.3 µg/mL); in [40] it was at least 128 µM; in [8], 32 µM (≈ 41 µg/mL); in assay [41], over 128 µM. In addition, the minimum inhibitory concentration (MIC) in the assay with Escherichia coli K88 is 4 µM (≈ 5.13 µg/mL); in assay [42] it was at least 128 µM; in [43] it was over 128 µM.
